Measurements reported in patent publication EP0537742B1, “Styrene derivatives” (Mitsubishi Chemical Corporation, priority 1991, dated 1993).
Like-named read-outs stand apart in the source and are kept apart here.

How the values were obtained:
SKOV3 cell line = assay: Test on cancer cells in tissue culture (proliferation inhibition, MTT); assay type: cell-based; conditions: Homo sapiens, SK-OV-3, 72 h
Method: Effect of the test material against the proliferation of cultivated cancer cells was examined with this SKOV3 cell line as follows:
SKOV3 cell was inoculated at a rate of 1 x 10^3 cell/well on a 96 well dish, and cultivated on a DMEM: F12 (1 : 1) medium containing 10% FCS and 0.1 mg/ml kanamycin at 37°C in a stream of 5% carbon dioxide for one day. Test material dissolved in DMSO was added to the medium (final concentration of DMSO was below 0.1%), which was cultivated for 3 days under the conditions mentioned above. Test material was replaced every 24 hours together with the medium.
Counting the number of living cells was effected by making colorimetric analysis at two wave length, 550 nm and 610 nm, in reference to the assaying method as described in Michael C. Alley et al., Cancer Research, 48, 589 (1988) using MTT reagent, and the number obtained was defined as "a".
At the same time, the count of the number of living cells obtained without adding the test material was assayed, and the number obtained was defined as "b".
Cell proliferation inhibitory rate was determined according to the following equation: Inhibitory Rate (%) = (b-a)/b x 100 [formula]

[1] = target: T1, human EGF (epidermal cell growth factor) receptor tyrosine kinase (Homo sapiens, UniProt P00533); assay: Tyrosine kinase activity inhibition (partially purified EGF receptor from A431 cell membrane fraction, RR-SRC peptide, 32P-ATP); assay type: biochemical; conditions: for inhibition at 10 µM: read-out: Inhibitory Rate (%) in the presence of 10 µM; for inhibition at 1 µM: read-out: Inhibitory Rate (%) in the presence of 1 µM
T1 construct: A431 cell membrane fraction, which was provided for the assay as the partially purified EGF receptor, enzyme source; endogenous in cells; host or cells: A431 (human squamous cell carcinoma), crude membrane fraction (27500 x g pellet)
T1 sequence (P00533 25-1210): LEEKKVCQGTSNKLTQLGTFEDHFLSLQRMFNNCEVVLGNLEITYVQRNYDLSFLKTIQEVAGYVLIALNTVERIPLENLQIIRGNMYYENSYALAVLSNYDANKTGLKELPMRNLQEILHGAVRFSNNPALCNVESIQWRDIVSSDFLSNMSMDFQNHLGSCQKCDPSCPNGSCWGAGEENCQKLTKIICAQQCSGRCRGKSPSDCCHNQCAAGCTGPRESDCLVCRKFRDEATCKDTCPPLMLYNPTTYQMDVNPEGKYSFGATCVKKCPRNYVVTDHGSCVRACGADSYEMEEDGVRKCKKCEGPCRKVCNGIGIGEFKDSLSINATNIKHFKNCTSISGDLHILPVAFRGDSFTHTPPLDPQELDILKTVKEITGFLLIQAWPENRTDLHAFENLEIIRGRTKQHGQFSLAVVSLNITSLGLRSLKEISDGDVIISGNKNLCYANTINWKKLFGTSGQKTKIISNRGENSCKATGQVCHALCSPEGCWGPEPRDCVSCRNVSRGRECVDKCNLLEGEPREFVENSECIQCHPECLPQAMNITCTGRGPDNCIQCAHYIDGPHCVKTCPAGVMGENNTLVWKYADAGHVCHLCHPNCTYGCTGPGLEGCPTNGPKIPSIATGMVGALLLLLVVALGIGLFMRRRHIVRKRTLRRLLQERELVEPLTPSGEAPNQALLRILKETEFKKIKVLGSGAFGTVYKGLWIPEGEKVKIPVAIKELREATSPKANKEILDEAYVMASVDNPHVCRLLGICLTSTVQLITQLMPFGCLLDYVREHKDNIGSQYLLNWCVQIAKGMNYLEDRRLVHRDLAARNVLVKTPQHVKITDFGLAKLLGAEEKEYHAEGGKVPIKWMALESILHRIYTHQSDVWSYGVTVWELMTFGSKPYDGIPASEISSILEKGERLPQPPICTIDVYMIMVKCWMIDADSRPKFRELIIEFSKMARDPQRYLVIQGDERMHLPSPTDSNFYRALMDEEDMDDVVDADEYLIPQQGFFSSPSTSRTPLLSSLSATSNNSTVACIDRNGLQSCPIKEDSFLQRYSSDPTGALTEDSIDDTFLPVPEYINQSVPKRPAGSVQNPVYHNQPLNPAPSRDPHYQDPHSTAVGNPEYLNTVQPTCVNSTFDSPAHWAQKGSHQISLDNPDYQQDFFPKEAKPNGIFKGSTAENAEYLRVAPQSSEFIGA
T1 sequence (P01133 971-1023 partner limits assumed): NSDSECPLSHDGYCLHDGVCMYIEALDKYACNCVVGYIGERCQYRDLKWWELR
Method: Detailed explanation of the assaying method will be given below.
A431 cells were cultivated in Dulbecco's modified Eagle's medium (DMEM) containing 10% fetal calf serum (FCS) at 37°C in a stream of 5% carbon dioxide, and the resultant cells were homogenized in a solution containing 10 mM N-2-hydroxyethylpiperazino-N'-2-ethanesulfonic acid (Hepes) buffer (pH 7.4), 0.25M sucrose and 0.1 mM EDTA and centrifuged at 1000 g for 5 minutes.
At that time the volume was 60 µl. The reaction was allowed to perform in ice for 30 minutes and stopped by adding 10 mg/ml bovine serum albumin (6 µl) and 20% trichloroacetic acid (25 µl). The mixture was allowed to stand in ice for 30 minutes.
Then the mixture was centrifuged at 5000 x g for 2 minutes, and the supernatant (40 µl) was sampled and adsorbed on P81 phosphocellulose paper. […] The count obtained was defined as "A". At the same time, counts of the reaction not containing the test material and the reaction not containing both the test material and EGF were assayed, and the resulted counts were defined as "B" and "C" respectively.

[2] = Toxicity test, intraperitoneal administration; assay type: in vivo, Mouse ddy (male)
Method: Toxicity test for the compounds of the present invention was examined in the manner as shown below. Test compound Compound No. 4 Test animal Mouse ddy (male) 16 - 20 g
Test compound was suspended in a mixture of 0.25% carboxymethyl cellulose, physiological saline, and a small amount of Tween 80 to give a test solution. This solution was administered intraperitoneally at dose of 0 mg/kg (control), 500 mg/kg and 1000 mg/kg to the test animal. Change of the body weight was measured 3 days later.

[3] = Table 5: Proliferation Inhibitory Effect Against Cultivated Cells, 3 days, read-out: IC50
[4] = Tyrosine Kinase Activity Inhibitory Effect, test material 10 µM

Row | IC50 (SKOV3 cell line; [3]) [µM] | SMILES | also measured
1 | 21 | N#CC(=Cc1cc(O)c(O)c(Br)c1)C(=O)Nc1cccc(Cl)c1 [Compound No. 6, N-(3-chlorophenyl)-2-cyano-3-(3-bromo-4,5-dihydroxyphenyl) propenamide] | 
2 |  | COc1cc(C=C(C#N)C(=O)Nc2cccc(Cl)c2)cc(F)c1O [Compound No. 7, N-(3-chlorophenyl)-2-cyano-3-(3-fluoro-4-hydroxy-5-methoxyphenyl) propenamide] | inhibition at 1 µM [1]: 41%
3 | 17 | N#CC(=Cc1cc(O)c(O)c(Br)c1Br)C(=O)Nc1cccc(Cl)c1 [Compound No. 9, N-(3-chlorophenyl)-2-cyano-3-(2,3-dibromo-4,5-dihydroxyphenyl) propenamide] | 
4 |  | N#CC(=Cc1ccc(O)c(O)c1)C(=O)Nc1ccc(Br)cc1 [Compound No. 10, N-(4-bromophenyl)-2-cyano-3-(3,4-dihydroxyphenyl) propenamide] | inhibition at 10 µM [1, 4]: 47%
5 |  | N#CC(=Cc1ccc(O)c(O)c1)C(=O)Nc1cccc(Br)c1 [Compound No. 11, N-(3-bromophenyl)-2-cyano-3-(3,4-dihydroxyphenyl) propenamide] | inhibition at 10 µM [1, 4]: 77%
6 |  | N#CC(=Cc1ccc(O)c(O)c1)C(=O)Nc1ccc(Cl)cc1 [Compound No. 12, N-(4-chlorophenyl)-2-cyano-3-(3,4-dihydroxyphenyl) propenamide] | inhibition at 10 µM [1, 4]: 52%
7 |  | Cc1cccc(NC(=O)C(C#N)=Cc2ccc(O)c(O)c2)c1 [Compound No. 14, N-(3-methylphenyl)-2-cyano-3-(3,4-dihydroxyphenyl) propenamide] | inhibition at 10 µM [1]: 77%
8 | 34 | N#CC(=Cc1cc(O)c(O)c(C#N)c1)C(=O)Nc1cccc(Cl)c1 [Compound No. 15, N-(3-chlorophenyl)-2-cyano-3-(3-cyano-4,5-dihydroxyphenyl) propenamide] | 
9 | 24 | N#CC(=Cc1cc(O)c(O)cc1[N+](=O)[O-])C(=O)Nc1cccc(Cl)c1 [Compound No. 16, N-(3-chlorophenyl)-2-cyano-3-(4,5-dihydroxy-2-nitrophenyl) propenamide] | 
10 | 16 | N#CC(=Cc1cc(O)c(O)c(C(F)(F)F)c1)C(=O)Nc1cccc(Cl)c1 [Compound No. 98, N-(3-chlorophenyl)-2-cyano-3-[3,4-dihydroxy-5-(trifluoromethyl)phenyl] propenamide] | 
11 | 24 | N#CC(C(=O)Nc1ccccc1)=C(O)c1ccc(O)c(O)c1 [Compound No. 119, 2-cyano-3-hydroxy-3-(3,4-dihydroxyphenyl) propenanilide] | 
12 |  | N#CC(=Cc1ccc(O)c(O)c1)C(=O)Nc1ccccc1 [Reference 1), reference compound] | IC50 (SKOV3 cell line): 35 µM
13 | 78 | CCOc1cc(C=C(C#N)C(N)=O)cc(CSc2ccccc2)c1O [Reference 2), reference compound] | 
14 |  | O=CNC=Cc1ccc(O)c(O)c1 [Reference 3), reference compound] | IC50 ([1]; Table 3, tyrosine kinase inhibition): 12 µM
15 | 19 | N#CC(=Cc1cc(Br)c(O)c(Br)c1)C(=O)Nc1cccc(Cl)c1 [compound 100] | 
16 | 13 | COc1cc(C=C(C#N)C(=O)Nc2ccccc2)cc(Br)c1O [compound 105] | 
17 | 14 | Cc1cc(C=C(C#N)C(=O)Nc2cccc(Cl)c2)cc(O)c1O [compound 110] | 

Row | SMILES | IC50 (SKOV3 cell line; [3]) [µM] | also measured
18 | COc1cc(C=C(C#N)C(=O)Nc2ccccc2)cc(Cl)c1O [Compound No. 1, 2-cyano-3-(3-chloro-4-hydroxy-5-methoxyphenyl) propeneanilide] | 17.3 | inhibition at 10 µM [1]: 63%
19 | N#CC(=Cc1cc(O)c(O)c(Cl)c1)C(=O)Nc1ccccc1 [Compound No. 2, 2-cyano-3-(3-chloro-4,5-dihydroxyphenyl)propenanilide] | 20.4 | inhibition at 10 µM [1]: 74%
20 | N#CC(=Cc1cc(O)c(O)c(Cl)c1)C(=O)Nc1cccc(Cl)c1 [Compound No. 4, N-(3-chlorophenyl)-2-cyano-3-(3-chloro-4,5-dihydroxyphenyl) propenamide] | 21.6 | dead case ([2]; 500 mg/kg intraperitoneally): No dead case was observed; dead case ([2]; 1000 mg/kg intraperitoneally): No dead case was observed
21 | N#CC(=Cc1cc(O)c(O)c(F)c1)C(=O)Nc1cccc(Cl)c1 [Compound No. 8, N-(3-chlorophenyl)-2-cyano-3-(3-fluoro-4,5-dihydroxyphenyl) propenamide] | 23.4 | inhibition at 1 µM [1]: 78%
22 | N#CC(=Cc1ccc(O)c(O)c1)C(=O)Nc1cccc(Cl)c1 [Compound No. 13, N-(3-chlorophenyl)-2-cyano-3-(3,4-dihydroxyphenyl) propenamide] | 30 | inhibition at 1 µM [1]: 46%; inhibition at 10 µM [1]: 100%
